Measurements from ChEMBL document CHEMBL1201862, “PubChem BioAssay data set” (2004).
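Method: 48-hour compound exposure of cells in 96-well plates, five concentrations, linear interpolation of endpoints. The concentration for 50% growth inhibition is given as GI50.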 The source made the active and inactive calls. Cut-off read from the data, not from the text of the source: active = GI50 up to about 1.1 µM and inactive = higher.

Tests used:
Experiment in all cases: NCI tumour cell line growth inhibition, 48 h
SW-620 = tested on: SW-620
SF-295 = tested on: SF-295
BT-549 = tested on: BT-549
MDA-N = tested on: MDA-N
A549 = tested on: A549
RPMI-8226 = tested on: RPMI-8226
MCF7 = tested on: MCF7
UACC-62 = tested on: UACC-62
IGROV-1 = tested on: IGROV-1
CCRF-CEM = tested on: CCRF-CEM
RXF 393 = tested on: RXF 393
SK-MEL-2 = tested on: SK-MEL-2
TK-10 = tested on: TK-10
MDA-MB-231 = tested on: MDA-MB-231
CAKI-1 = tested on: CAKI-1
NCI-H226 = tested on: NCI-H226
OVCAR-8 = tested on: OVCAR-8
PC-3 = tested on: PC-3
SNB-75 = tested on: SNB-75
NCI-H460 = tested on: NCI-H460
SK-OV-3 = tested on: SK-OV-3
EKVX = tested on: EKVX
786-0 = tested on: 786-0
U-251 = tested on: U-251
HOP-92 = tested on: HOP-92
KM12 = tested on: KM12
OVCAR-3 = tested on: OVCAR-3
NCI-H23 = tested on: NCI-H23
K562 = tested on: K562
COLO 205 = tested on: COLO 205
SK-MEL-5 = tested on: SK-MEL-5
A498 = tested on: A498
HL-60 = tested on: HL-60
Malme-3M = tested on: Malme-3M
HT-29 = tested on: HT-29
T47D = tested on: T47D
SF-539 = tested on: SF-539
MOLT-4 = tested on: MOLT-4
MDA-MB-435 = tested on: MDA-MB-435
HCC 2998 = tested on: HCC 2998
HCT-116 = tested on: HCT-116
SK-MEL-28 = tested on: SK-MEL-28
SNB-19 = tested on: SNB-19
LOX IMVI = tested on: LOX IMVI
OVCAR-5 = tested on: OVCAR-5
SR = tested on: SR
M14 = tested on: M14
NCI-H522 = tested on: NCI-H522
ACHN = tested on: ACHN
UACC-257 = tested on: UACC-257
HCT-15 = tested on: HCT-15
SN12C = tested on: SN12C
UO-31 = tested on: UO-31
OVCAR-4 = tested on: OVCAR-4
DU-145 = tested on: DU-145
HOP-62 = tested on: HOP-62
NCI/ADR-RES = tested on: NCI/ADR-RES

COC1CCC(OC2CC(C3(C)CCC4(CC(O)C(C)C(C(C)/C=C(\C)C(=O)C(C)CC(C)C(=O)O)O4)O3)OC3(OC(C4OC(O)(CO)C(C)CC4C)CC3C)C2C)OC1C (stereo not given)
GI50 (SW-620): < 26.9 nM (active) | GI50 (SF-295): 179 nM (active) | GI50 (BT-549): < 32.4 nM (active) | GI50 (MDA-N): 81.1 nM (active) | GI50 (A549): < 15.4 nM (active) | GI50 (RPMI-8226): < 10 nM (active) | GI50 (MCF7): < 20.8 nM (active) | GI50 (UACC-62): 132 nM (active) | GI50 (IGROV-1): 1790 nM (inactive) | GI50 (CCRF-CEM): < 10 nM (active) | GI50 (RXF 393): < 10 nM (active) | GI50 (SK-MEL-2): 161 nM (active) | GI50 (TK-10): 646 nM (active) | GI50 (MDA-MB-231): 62.1 nM (active) | GI50 (CAKI-1): 98.2 nM (active) | GI50 (NCI-H226): 378 nM (active) | GI50 (OVCAR-8): < 36.8 nM (active) | GI50 (PC-3): < 10 nM (active) | GI50 (SNB-75): 22 nM (active) | GI50 (NCI-H460): < 14.4 nM (active) | GI50 (SK-OV-3): 528 nM (active) | GI50 (EKVX): 507 nM (active) | GI50 (786-0): < 34.1 nM (active) | GI50 (U-251): < 16.6 nM (active) | GI50 (HOP-92): 482 nM (active) | GI50 (KM12): 75.3 nM (active) | GI50 (OVCAR-3): < 10 nM (active) | GI50 (NCI-H23): < 34.5 nM (active) | GI50 (K562): < 15.5 nM (active) | GI50 (COLO 205): < 15.4 nM (active) | GI50 (SK-MEL-5): < 20.1 nM (active) | GI50 (A498): < 16.9 nM (active) | GI50 (HL-60): < 10 nM (active) | GI50 (Malme-3M): < 20.5 nM (active) | GI50 (HT-29): < 31.3 nM (active) | GI50 (T47D): < 10 nM (active) | GI50 (SF-539): 45.3 nM (active) | GI50 (MOLT-4): < 10 nM (active) | GI50 (MDA-MB-435): 92.3 nM (active) | GI50 (HCC 2998): < 24.7 nM (active) | GI50 (HCT-116): < 27.9 nM (active) | GI50 (SK-MEL-28): 36.2 nM (active) | GI50 (SNB-19): 43.4 nM (active) | GI50 (LOX IMVI): < 25.3 nM (active) | GI50 (OVCAR-5): 2990 nM (inactive) | GI50 (SR): < 10 nM (active) | GI50 (M14): 122 nM (active) | GI50 (NCI-H522): < 10 nM (active) | GI50 (ACHN): < 38 nM (active) | GI50 (UACC-257): < 19.9 nM (active) | GI50 (HCT-15): 35.1 nM | GI50 (SN12C): < 31.9 nM (active) | GI50 (UO-31): 54.8 nM (active) | GI50 (OVCAR-4): 337 nM (active) | GI50 (DU-145): < 50.1 nM (active) | GI50 (HOP-62): < 15.6 nM (active)

COC(=O)C1=CC(=O)OC1(OO)c1ccccc1 (stereo not given)
GI50 (SW-620): 68100 nM (inactive) | GI50 (SF-295): > 100000 nM (inactive) | GI50 (BT-549): > 100000 nM (inactive) | GI50 (MDA-N): > 100000 nM (inactive) | GI50 (A549): > 100000 nM (inactive) | GI50 (MCF7): > 100000 nM (inactive) | GI50 (UACC-62): > 100000 nM (inactive) | GI50 (IGROV-1): > 100000 nM (inactive) | GI50 (CCRF-CEM): 18700 nM (inactive) | GI50 (RXF 393): > 100000 nM (inactive) | GI50 (SK-MEL-2): > 100000 nM (inactive) | GI50 (TK-10): > 100000 nM (inactive) | GI50 (MDA-MB-231): > 100000 nM (inactive) | GI50 (CAKI-1): 38800 nM (inactive) | GI50 (NCI-H226): > 100000 nM (inactive) | GI50 (OVCAR-8): > 100000 nM (inactive) | GI50 (PC-3): > 100000 nM (inactive) | GI50 (SNB-75): 92300 nM (inactive) | GI50 (NCI-H460): > 100000 nM (inactive) | GI50 (SK-OV-3): > 100000 nM (inactive) | GI50 (EKVX): > 100000 nM (inactive) | GI50 (786-0): 35600 nM (inactive) | GI50 (U-251): > 100000 nM (inactive) | GI50 (HOP-92): 30800 nM (inactive) | GI50 (KM12): > 100000 nM (inactive) | GI50 (OVCAR-3): > 100000 nM (inactive) | GI50 (NCI-H23): > 100000 nM (inactive) | GI50 (K562): 33500 nM (inactive) | GI50 (COLO 205): > 100000 nM (inactive) | GI50 (SK-MEL-5): > 100000 nM (inactive) | GI50 (HL-60): 3180 nM (inactive) | GI50 (Malme-3M): 28300 nM (inactive) | GI50 (HT-29): 56400 nM (inactive) | GI50 (T47D): > 100000 nM (inactive) | GI50 (SF-539): > 100000 nM (inactive) | GI50 (MOLT-4): 62200 nM (inactive) | GI50 (MDA-MB-435): > 100000 nM (inactive) | GI50 (HCC 2998): > 100000 nM (inactive) | GI50 (HCT-116): 88300 nM (inactive) | GI50 (SK-MEL-28): > 100000 nM (inactive) | GI50 (SNB-19): > 100000 nM (inactive) | GI50 (LOX IMVI): 94800 nM (inactive) | GI50 (OVCAR-5): > 100000 nM (inactive) | GI50 (SR): 42100 nM (inactive) | GI50 (M14): > 100000 nM (inactive) | GI50 (NCI-H522): 30300 nM (inactive) | GI50 (ACHN): > 100000 nM (inactive) | GI50 (UACC-257): > 100000 nM (inactive) | GI50 (HCT-15): 54000 nM | GI50 (SN12C): > 100000 nM (inactive) | GI50 (UO-31): > 100000 nM (inactive) | GI50 (OVCAR-4): > 100000 nM (inactive) | GI50 (NCI/ADR-RES): > 100000 nM (inactive) | GI50 (DU-145): > 100000 nM (inactive)
